How the values were obtained:
[1] = test system: papillary RCC cell line (ACHN) orthotopic xenograft; test: fluorescence imaging of orthotopic papillary RCC xenograft; format: in vivo, mice; conditions: cancerous vs normal kidney tissue
[2] = mouse, in vivo, iv

- amount found in the feces [2]: 85.3 % ID
- amount in feces, times higher than ICG-PEG45 [2]: 29.8 times
Structure (SMILES): CC1(C)C(/C=C/C=C/C=C/C=C2\N(CCCCS(=O)(=O)O)c3ccc4ccccc4c3C2(C)C)=[N+](CCCCS(=O)(=O)[O-])c2ccc3ccccc3c21 [ICG, indocyanine green]
- hyperfluorescent imaging of RCC in the kidneys (in words) [1]: failed to hyperfluorescently light up RCC
